Where “and” joins values, the source holds several entries; their conditions need not be identical. Equal values may be shown once.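 These data come from cells grown in 96-well plates and exposed to compound for 48 hours at five concentrations. The concentration for 50% growth inhibition is given as GI50. At the TGI there is no net growth.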
Columns and labels:
Assay in all cases: NCI tumour cell line growth inhibition, 48 h
[1] = system: DLD-1 colon
[2] = system: DMS 114 small cell lung
[3] = system: SNB-78 CNS
[4] = system: KM20L2 colon
[5] = system: MDA-N
[6] = system: HOP-18 NSCLC
[7] = system: XF 498 CNS
[8] = system: P388/ADR leukemia
[9] = system: P388 leukemia
[10] = system: SN12K1 renal
[11] = system: RXF-631 renal

Row | Compound | TGI [1] | TGI [2] [µM] | TGI [3] [µM] | TGI [4] | TGI [5] | TGI [6] [µM] | TGI [7] [µM] | other results
1 | O=C(CCc1ccccc1)On1nnc2ccccc2c1=O | > 100 µM | > 100 | > 100 | > 100 µM | – | – | – | –
2 | O=C(O)C(Br)C(Br)c1ccccc1[N+](=O)[O-] (stereo not drawn) | – | – | – | – | > 100 µM | – | – | –
3 | CN(/N=C/c1ccnc2ccccc12)c1ccc([N+](=O)[O-])cc1[N+](=O)[O-] | > 100 µM | > 100 | > 100 | > 100 µM | – | > 100 | > 100 | –
4 | Cc1cccc2c1Oc1cc(Cl)ccc1C2NC(=O)CN(C)C (stereo not drawn) | > 100 µM | > 100 | > 100 | 41.2 µM | – | – | – | –
5 | CS(=O)(=O)OCCN(CCOS(C)(=O)=O)c1ccc(C=Nc2ccc3oc(=O)ccc3c2)cc1 | – | 22.3 | 12.5 | > 100 µM | 35.8 µM | – | – | –
6 | O=C(O)c1ccc(N=Nc2cc(S(=O)(=O)O)c3cccnc3c2O)cc1 | > 100 µM | > 100 | > 100 | > 100 µM | – | – | > 100 | –
7 | CC1=Nc2c([nH]c(=S)[nH]c2=O)NC(c2ccc(Cl)c(Cl)c2)C1 (stereo not drawn) | > 56.7 µM | > 81 | > 100 | > 62.9 µM | – | > 100 | > 100 | –
8 | C[C@H]1COC2(c3ccccc3)CCC(=O)N12 (stereo partly drawn) | > 100 µM | > 100 | > 100 | > 100 µM | – | > 100 | > 100 | –
9 | CC(=O)OCC(OC(C)=O)C(OC(C)=O)C(OC(C)=O)C(=O)CNn1c(-c2ccccc2)nc2ccc(Br)cc2c1=O (stereo not drawn) | – | > 100 | > 100 | > 100 µM | – | – | > 100 | –
10 | CCCCSCc1nc2nc(Cl)c(Cl)nc2[nH]1 | – | – | – | – | 65.9 µM | – | – | –
11 | OCC(O)COc1c(Cl)ccc(Cl)c1Cl (stereo not drawn) | > 100 µM | > 100 | > 100 | > 100 µM | – | > 100 | > 100 | –
12 | CC(=O)NCCCCCCNC(C)=O | > 10000 µM | > 10000 | > 10000 | > 10000 µM | > 10000 µM | > 10000 | 8380 | TGI [8]: > 10000 µM; TGI [9]: > 10000 µM; TGI [10]: > 10000 µM
13 | CN(C)c1nc(N(C)C)n2nc(-c3ccccc3[N+](=O)[O-])nc2n1 | > 100 µM | > 100 | > 100 | > 100 µM | – | > 100 | > 100 | –
14 | NS(=O)(=O)c1ccc(NC(=O)CC(=O)Nc2ccc(S(N)(=O)=O)cc2)cc1 | > 100 µM | > 100 | > 100 | > 100 µM | – | > 100 | – | –
15 | O=C1OC(c2ccccc2)=N/C1=C\c1c(O)cc(O)cc1O | – | > 100 | > 100 | > 100 µM | – | > 100 | – | –
16 | CC1CCC2C(C)C3C(CC4C5CC=C6CC(OC7OC(CO)C(O)C(OC8OC(CO)C(O)C(O)C8O)C7OC7OC(C)C(O)C(O)C7O)CCC6(C)C5CCC43C)N2C1 (stereo not drawn) | – | – | – | – | 23.7 µM and > 2.5 µg/mL | – | – | GI50 [5]: > 2.5 µg/mL
17 | CCOC(=O)C1=C(NC(C)(C)C)OCC1=O | > 100 µM | – | > 100 | > 100 µM | – | – | > 100 | TGI [11]: > 100 µM
18 | Cc1[nH]c(=O)nc(CC(O)(c2ccccc2)c2ccccc2)c1-c1ccccc1 | > 100 µM | > 100 | > 100 | > 100 µM | – | > 100 | – | TGI [11]: > 100 µM
19 | CC1CCCN(CC(O)CN2CCCc3ccccc32)C1 (stereo not drawn) | – | – | – | – | > 100 µM | – | – | –
20 | O=C1C=CN(C2OC(CO)C(O)C2O)C(=O)C1 (stereo not drawn) | 625 µM and > 2500 µM | – | – | 625 µM and > 1160 µM | > 2500 µM | > 2500 | 1940 | GI50 [1]: 21.5 µM; TGI [8]: > 992 µM; GI50 [6]: > 625 µM; GI50 [7]: 409 µM; GI50 [4]: 19.9 µM; TGI [9]: 52.5 µM; GI50 [10]: 24.7 µM and 14.4 µM; TGI [10]: 625 µM and > 810 µM

Row | Compound | TGI [1] | TGI [2] [µM] | TGI [3] [µM] | TGI [4] | TGI [5] | TGI [6] [µM] | TGI [7] [µM] | other results
21 | CC(C)CC(CNC(Cc1ccc(Cl)cc1)C(N)=O)NC(=O)C(Cc1cnc[nH]1)NC(=O)CNC(=O)C(NC(=O)C(C)NC(=O)C(Cc1c[nH]c2ccccc12)NC(=O)C(CCC(=O)O)NC(=O)C(N)Cc1ccccc1)C(C)C (stereo not drawn) | > 133 µM | > 133 | > 133 | > 133 µM | – | – | > 133 | TGI [11]: > 133 µM
22 | N#CCC(=O)N/N=C1/C(=O)NC(=O)C(=O)C1c1nc2ccccc2s1 (stereo not drawn) | > 100 µM | > 100 | > 100 | > 100 µM | – | > 100 | – | TGI [11]: > 100 µM
23 | CCOC(OCC)c1ccc(/C=C/c2cc(OC)c(OC)c(OC)c2)cc1 | 38.8 µM | 50.2 | 87.9 | 41.8 µM | – | > 100 | – | TGI [11]: 70.7 µM
24 | O=C(O)c1ccc(S(=O)(=O)N=Nc2c(O)[nH]c3ccccc23)cc1 | – | – | – | – | > 100 µM | – | – | –
25 | COC(=O)C1=C(c2cc(OC)c(OC)c(OC)c2)OC(c2cc(OC)c(OC)c(OC)c2)C1COC(C)=O (stereo not drawn) | > 100 µM | > 100 | > 100 | > 100 µM | – | – | > 100 | TGI [11]: 45.1 µM
26 | COc1cccc2c1cc([N+](=O)[O-])c1c(C(=O)O)cc3c(c12)OCO3 | – | – | – | – | > 100 µM | – | – | –
27 | O=C(N=Nc1c(O)[nH]c2c(Cl)cc(Cl)cc12)c1ccncc1 | – | – | – | – | 29.1 µM | – | – | –
28 | O=C1NC(=O)C2(CCC(O)C2)c2cc[n+]([O-])cc21 (stereo not drawn) | – | – | – | – | > 100 µM | – | – | –
29 | COc1ccc(/C=C/c2nc(=S)[nH][nH]2)cc1 | > 100 µM | > 100 | > 100 | > 100 µM | – | – | > 100 | TGI [11]: > 100 µM
30 | COc1cc(OC)c(OC)cc1/C=C1\C=Cc2ccccc21 | – | – | – | – | 58.2 µM | – | – | –
31 | O=C(CCC(=O)N/N=C/c1ccccc1O)N/N=C/c1ccccc1O | – | > 100 | > 100 | > 100 µM | – | – | – | –
32 | C=C1CC2(OC1=O)c1ccccc1C=Cc1ccccc12 | 3.76 µM | 21 | 9.3 | 20.5 µM | 4.47 µM | 27.4 | 26.5 | TGI [11]: 33.1 µM
33 | CCc1ccc(/C(C)=N/NC(N)=S)cc1 | – | > 100 | > 100 | > 100 µM | – | > 100 | 82.6 | –
34 | NC1=NC2(O)c3ccccc3C(=O)C2(O)N1 (stereo not drawn) | > 100 µM | > 100 | > 100 | > 100 µM | – | > 100 | – | TGI [11]: > 100 µM
35 | COC1(OC)CC2C(=O)N(Cc3ccccc3)C1CC2S(=O)(=O)c1ccccc1 (stereo not drawn) | > 100 µM | > 100 | – | – | – | > 100 | 98.7 | –
36 | COc1ccc2[nH]c(-c3cccc(N(C)C)c3)cc(=O)c2c1 | – | – | – | – | 0.156 µM | – | – | –
37 | COc1ccc(/C(Cl)=C(\C=O)c2ccc(Br)cc2)cc1OC | > 100 µM | – | > 100 | > 100 µM | – | > 100 | 39.8 | TGI [11]: > 100 µM
38 | Fc1ccc(F)c(C2SCc3nc4ccccc4n32)c1 (stereo not drawn) | > 100 µM | 68.8 | > 100 | > 100 µM | – | > 100 | – | –
39 | Cc1c(C2Cc3ccccc3N2C(=O)/C=C\C(=O)O)c2ccccc2n1C (stereo not drawn) | > 100 µM | 40 | > 100 | 58.3 µM | – | – | 31.5 | TGI [11]: > 100 µM
